Test results from patent US20110039333A1, “DEFINED CONDITIONS FOR HUMAN EMBRYONIC STEM CELL CULTURE AND PASSAGE” (UNIVERSITY OF SOUTHERN CALIFORNIA, priority 2009, published 2011).

Tests used:
hESC = assay: Xeno-free, feeder-free hESC culture (minimal medium development); assay type: cell-based, human; settings: minimal medium (DMEM/F-12, bFGF, Wnt3a, ITS) without ID-8
Experimental: For xeno-free, feeder-free culture, the cells were passaged into 2 μg/cm^2 human Fibronectin (Sigma), 10-20 μg/cm^2 human Laminin (Sigma) and 10 μg/cm^2 human Vitronectin (Invitrogen)-coated culture dishes and cultured in DMEM/F-12 supplement with L-glutamine, a non-essential amino acid, ITS, 20-25 ng/ml Wnt3a and 500 nM ID-8, and with or without 4 ng/ml FGF2. The culture medium was changed daily. Some of colonies became detached from the edge region 5 to 7 days after culturing, and then cells were treated with 0.5 mg/ml GRGDTP peptides (AnaSpec) or 1 μg/ml Echistatin (Sigma) and incubated at 37° C. for 15-45 minutes until almost all of the colony starts to detach from the edge region. The colonies were detached and partially dissociated into clumps by gentle pipetting, and then the clumps were washed with culture medium, collected by centrifugation and seeded on new dishes as 1 to 2 split ratio.
The development of a xeno-free, feeder-free hESC culture system using ID-8 and Wnt activation was investigated. After extensive investigation, the inventors determined that the minimal media required to maintain hESC proliferation and pluripotency consisted of DMEM/F-12 with bFGF (4 ng/ml), Wnt3a (25 ng/ml), ID-8 (0.5 μM) and Insulin-Transferrin-Selenium (ITS). […] The inventors next sought to replace the Wnt ligand with several small molecule GSK-3 inhibitors, BIO (11), CHIR99021 (22) and Kenpaullone (23) in ID-8 containing medium with or without bFGF. […] However, in contrast to Wnt ligand containing medium, hESCs became unstable after few passages, subsequently stabilized and maintained pluripotent cores were surrounded with spontaneously differentiated cells (FIG. 5). Under these conditions, manually selection of undifferentiated hESC colonies from the surrounding cells was required at every passage to maintain pluripotent cultures.
Initially, cells were maintained on Matrigel, a complex animal derived ECM. However, it would be advantageous to use a defined xeno-component-free ECM. […] Because of the extremely low level of protein in these cultures (i.e. no albumin and matrigel), the hESCs are extremely sensitive to damage caused by the dissociation enzymes normally used for passaging. […] To develop a compatible passaging process, the inventors investigated several integrin antagonists.

DYRK2 = target: T1, DYRK2 (Homo sapiens, UniProt Q92630); assay: ID-8 affinity chromatography / pull-down with biotinylated ID-8, competition by free ID-8; assay type: binding; settings: cell lysates; competition with free ID-8
T1 construct: endogenous in cells
T1 sequence (Q92630 1-601): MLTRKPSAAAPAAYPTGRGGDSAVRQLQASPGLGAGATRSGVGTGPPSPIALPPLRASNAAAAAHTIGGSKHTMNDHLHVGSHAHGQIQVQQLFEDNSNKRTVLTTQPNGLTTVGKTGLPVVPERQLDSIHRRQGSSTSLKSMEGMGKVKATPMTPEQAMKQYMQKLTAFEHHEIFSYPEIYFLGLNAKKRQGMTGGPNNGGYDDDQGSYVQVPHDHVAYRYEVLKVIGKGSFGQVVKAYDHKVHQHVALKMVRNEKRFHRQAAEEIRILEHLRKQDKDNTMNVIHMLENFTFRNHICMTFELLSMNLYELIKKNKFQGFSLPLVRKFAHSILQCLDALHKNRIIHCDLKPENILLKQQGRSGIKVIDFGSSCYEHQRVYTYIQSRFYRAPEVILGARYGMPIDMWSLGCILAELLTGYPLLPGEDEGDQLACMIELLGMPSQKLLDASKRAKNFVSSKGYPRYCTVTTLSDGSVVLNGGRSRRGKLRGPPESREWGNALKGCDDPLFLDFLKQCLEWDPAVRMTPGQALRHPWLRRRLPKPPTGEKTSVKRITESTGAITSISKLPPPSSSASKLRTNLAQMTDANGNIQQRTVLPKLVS
Experimental: The cells were washed twice with 5 mL of ice-old PBS and scraped using 1 mL of PBS containing protease inhibitor cocktail (Calbiochem 539137). The cells were collected by centrifugation and the cell pellet was frozen and stocked with liquid nitrogen. Total 2 g of cell pellet was thawed on ice and then suspended in 20 mL of chilled M-Per (Pierce 78501) buffer containing 1 mM DTT and the protease inhibitor cocktail. The cell suspension was mixed and lysed on a nutator (BD Diagnostics) for 30 minutes at 4° C. The lysate was then centrifuged at 10,000 rpm for 30 minutes at 4° C., and the supernatant was divided into two equal aliquots in 50 mL centrifuge tubes. […]
After pre-treatment with free competitor ID-8 or DMSO control, the streptayidin-sepharose bound with biotinylated ID-8 was applied on the lysates. […] The specific bands lost by competitor free ID-8 was analyzed by LC/MS (LTQ-XL, Thermo Scientific).
The elution was also analyzed by or western blotting with specific antibodies against DYRK1a (Cell Signaling 2771), DYRK2 (Abeam ab37912), DYRK3 (Santa Cruz sc-66868), DYRK4 (Abeam ab37911), or HIP2K (Santa Cruz sc-100383).
ID-8 (FIG. 4A) can enhance β-catenin/CBP-mediated transcription, however, its direct molecular target(s) remained unidentified. […] To confirm this, the inventors designed miRNA to target the DYRK family and evaluated them after transfection by immunoblotting (FIG. 4D-E). […]

COc1ccc(-n2c(C)c([N+](=O)[O-])c3ccc(O)cc32)cc1 [ID-8]
maintenance of hESC colonies (hESC): no colonies were maintained | binding of DYRK2 to ID-8 affinity column (DYRK2): competed away by free ID-8
